Each structure is given as a SMILES string.

The test has as its system GBM8 cells (human glioblastoma neurosphere cell culture). Nature of the test: GBM8 viability assay (Cell Titer Glo luminescence, 3 days). In kind it is cell-based. Conditions: 72 h, 3 days incubation. As to the method: Example 283: GBM4 and GBM8 Viability Assay
Cell culture medium was prepared from a NSA proliferation kit (Neurocult) and NeuroCult supplements (Stemcell Tech Cat. #05751) and treated with 20 μL of 10 μg/mL rh EGF, 10 μL of 10 μg/mL rh bFGF and 10 μL of 0.2% Heparin. In this medium, human glioblastoma cells were cultured in ultra-low attachment tissue culture flasks until 1×10^6 cells ml was achieved (GBM4 and GBM8 are distinct neurosphere cell cultures derived from these human patient tissues). GBM4 and GBM8 cells were dissociated and 10 mL of media containing 4000 human glioblastoma cells per 90 uL were transferred to an ultra-low binding 96-well plate and incubated at 37° C. overnight. On the following day, 10 μL of a 1% DMSO solution of test compound in assay medium was added to wells containing the cell suspension and the mixture incubated at 37° C. for 3 days. At this time, the plate was removed from the incubator and allowed to reach room temperature. After about 30 minutes, 50 μL of Cell Titer Glo solution was added to each well and the plate shaken for 1 minute at low speed. After 10 minutes luminescence was recorded using a Tecan Safire2 reader.
Reduction in luminescence compared to DMSO only control wells was used to determine the percentage inhibition of cell growth. IC50s were calculated using the % inhibition of luminescence for serial dilutions of compounds fitted to a 4-parameter fit within the Prism (San Diego) curve fitting program.
`Cc1cc(NCC(C)O)nc(NC(=O)Nc2ccc(Cl)c(Cl)c2)n1` (stereo not drawn) [Compound 10, 1-{2-[3-(3,4-Dichlorophenyl)ureido]-6-methyl-4-pyrimidinylamino}-2-propanol] came in with a half-maximal inhibitory concentration (IC50) of less than 1 µM.

As to `Cc1cc(NCCN(C)C)nc(NC(=O)Nc2ccc(Cl)c(Cl)c2)n1` [Compound 11], the IC50 is less than 1 µM. Compound `Cc1cc(NCCO)nc(NC(=O)Nc2ccc(Cl)c(Cl)c2)n1` [Compound 12] had an IC50 of less than 1 µM. To `Cc1cc(NCCCCO)nc(NC(=O)Nc2ccc(Cl)c(Cl)c2)n1` [Compound 13] belongs less than 1 µM. To `Cc1cc(NCCN)nc(NC(=O)Nc2ccc(Cl)c(Cl)c2)n1` [Compound 14] belongs less than 1 µM. To `Cc1cc(NCCCCN)nc(NC(=O)Nc2ccc(Cl)c(Cl)c2)n1` [Compound 15] belongs less than 1 µM. For the compound `Cc1cc(NCC2CCCN(C)C2)nc(NC(=O)Nc2ccc(Cl)c(Cl)c2)n1` (stereo not drawn) [Compound 16], the IC50 is less than 1 µM. Consider `Cc1cc(NCCCCN(C)C)nc(NC(=O)Nc2ccc(Cl)c(Cl)c2)n1` [Compound 17], for which the IC50 is less than 1 µM. To `Cc1cc(NCCOCCO)nc(NC(=O)Nc2ccc(Cl)c(Cl)c2)n1` [Compound 18] belongs less than 1 µM. To `Cc1cc(NCCC(N)=O)nc(NC(=O)Nc2ccc(Cl)c(Cl)c2)n1` [Compound 19] belongs 1 to 10 µM; to `COC(=O)CCNc1cc(C)nc(NC(=O)Nc2ccc(Cl)c(Cl)c2)n1` [Compound 20], less than 1 µM. The result for `Cc1cc(NCCCc2ccccn2)nc(NC(=O)Nc2ccc(Cl)c(Cl)c2)n1` [Compound 21] reads 1 to 10 µM. With `CNCCCCNc1cc(C)nc(NC(=O)Nc2ccc(Cl)c(Cl)c2)n1` [Compound 26, 1-(3,4-dichlorophenyl)-3-(4-methyl-6-((4-(methylamino)butyl)amino)pyrimidin-2-yl)urea], the IC50 was less than 1 µM. To `Cc1cc(NCC2CCCNC2)nc(NC(=O)Nc2ccc(Cl)c(Cl)c2)n1` (stereo not drawn) [Compound 27] belongs less than 1 µM. To `CNCCNc1cc(C)nc(NC(=O)Nc2ccc(Cl)c(Cl)c2)n1` [Compound 28] belongs less than 1 µM. The result for `CNCCCNc1cc(C)nc(NC(=O)Nc2ccc(Cl)c(Cl)c2)n1` [Compound 29] reads less than 1 µM; that for `Cc1cc(NCCCO)nc(N2CCN(c3ccc(Cl)c(Cl)c3)C2=O)n1` [Compound 35, 3-(3,4-dichlorophenyl)-1-[4-(3-hydroxypropylamino)-6-methyl-2-pyrimidinyl]-2-imidazolidinone], less than 1 µM.

`Cc1cc(NCCCN(C)C)nc(N2CCN(c3ccc(Cl)c(Cl)c3)C2=O)n1` [Compound 36, 3-(3,4-dichlorophenyl)-1-{4-[3-(dimethylamino)propylamino]-6-methyl-2-pyrimidinyl}-2-imidazolidinone] showed an IC50 of less than 1 µM.

`Cc1cc(NCCCO)nc(NC(=O)Nc2ccc(Cl)cc2)n1` [Compound 41, 3-{2-[3-(p-Chlorophenyl)ureido]-6-methyl-4-pyrimidinylamino}-propanol] showed a concentration for half-maximal inhibition (IC50) of less than 1 µM. `Cc1cc(NCCCO)nc(NC(=O)Nc2cccc(Cl)c2)n1` [Compound 43, 3-{2-[3-(m-chlorophenyl)ureido]-6-methyl-4-pyrimidinylamino}-propanol] showed a half-inhibitory concentration (IC50) of less than 1 µM. Consider `Cc1cc(NCCCN(C)C)nc(NC(=O)Nc2ccc(Cl)cc2)n1` [Compound 44, 1-{2-[3-(4-chloro-phenyl)ureido]-6-methyl-4-pyrimidin-ylamino}-3-(dimethylamino)propane], for which the IC50 was less than 1 µM. The result for `Cc1cc(NCCCN(C)C)nc(NC(=O)Nc2cccc(Cl)c2)n1` [Compound 45, 1-{2-[3-(3-Chloro-phenyl)ureido]-6-methyl-4-pyrimidin-ylamino}-3-(dimethyl-amino)propane] reads less than 1 µM; that for `Cc1cc(NCCCN(C)C)nc(NC(=O)Nc2ccc(Cl)c(C(F)(F)F)c2)n1` [Compound 47, 1-(2-{3-[4-chloro-3-(trifluoromethyl)phenyl]ureido}-6-methyl-4-pyrimidinylamino)-3-(dimethylamino)propane], less than 1 µM.

`Cc1cc(NCCN(C)C)nc(NC(=O)Nc2ccc(Cl)c(C(F)(F)F)c2)n1` [Compound 48] registered an IC50 of 1 to 10 µM.

Compound `Cc1cc(NCCO)nc(NC(=O)Nc2ccc(Cl)c(C(F)(F)F)c2)n1` [Compound 49] returned a half-maximal inhibitory concentration (IC50) of less than 1 µM. `Cc1cc(NCCCCO)nc(NC(=O)Nc2ccc(Cl)c(C(F)(F)F)c2)n1` [Compound 50] yielded a 50% inhibitory concentration (IC50) of less than 1 µM. To `Cc1cc(NCCOCCO)nc(NC(=O)Nc2ccc(Cl)c(C(F)(F)F)c2)n1` [Compound 51] belongs less than 1 µM; to `Cc1cc(NCC(O)CO)nc(NC(=O)Nc2ccc(Cl)c(C(F)(F)F)c2)n1` (stereo not drawn) [Compound 52], less than 1 µM; to `Cc1cc(NCC(F)(F)CO)nc(NC(=O)Nc2ccc(Cl)c(C(F)(F)F)c2)n1` [Compound 53], less than 1 µM. The result for `Cc1cc(NCC(C)O)nc(NC(=O)Nc2ccc(Cl)c(C(F)(F)F)c2)n1` (stereo not drawn) [Compound 54] reads less than 1 µM; that for `Cc1cc(NCCN)nc(NC(=O)Nc2ccc(Cl)c(C(F)(F)F)c2)n1` [Compound 55], less than 1 µM; that for `Cc1cc(NCCCCN(C)C)nc(NC(=O)Nc2ccc(Cl)c(C(F)(F)F)c2)n1` [Compound 56], 1 to 10 µM. The result for `Cc1cc(NCCc2ccccn2)nc(NC(=O)Nc2ccc(Cl)c(C(F)(F)F)c2)n1` [Compound 57] reads 1 to 10 µM.

In the case of `Cc1cc(NCCCc2cnc[nH]2)nc(NC(=O)Nc2ccc(Cl)c(C(F)(F)F)c2)n1` [Compound 59], the half-inhibitory concentration (IC50) was less than 1 µM. To `Cc1cc(NCCC(N)=O)nc(NC(=O)Nc2ccc(Cl)c(C(F)(F)F)c2)n1` [Compound 60] belongs less than 1 µM; to `CNCCNc1cc(C)nc(NC(=O)Nc2ccc(Cl)c(C(F)(F)F)c2)n1` [Compound 63, 1-(4-chloro-3-(trifluoromethyl)phenyl)-3-(4-methyl-6-((2-(methylamino)ethyl)amino)pyrimidin-2-yl)urea], 1 to 10 µM. The result for `CNCCCNc1cc(C)nc(NC(=O)Nc2ccc(Cl)c(C(F)(F)F)c2)n1` [Compound 64] reads less than 1 µM; that for `CNCCCCNc1cc(C)nc(NC(=O)Nc2ccc(Cl)c(C(F)(F)F)c2)n1` [Compound 65], less than 1 µM. The result for `Cc1cc(NCC2CCCNC2)nc(NC(=O)Nc2ccc(Cl)c(C(F)(F)F)c2)n1` (stereo not drawn) [Compound 66] reads less than 1 µM; that for `Cc1cc(NC2CCNC2)nc(NC(=O)Nc2ccc(Cl)c(C(F)(F)F)c2)n1` (stereo not drawn) [Compound 67], less than 1 µM.

The compound `Cc1cc(NCCCN(C)C)nc(NC(=O)Nc2ccccc2)n1` [Compound 69, 1-(4-((3-(dimethylamino)propyl)amino)-6-methylpyrimidin-2-yl)-3-phenylurea] returned an IC50 of 1 to 10 µM.

`Cc1cc(NCCCO)nc(NC(=O)Nc2ccccc2)n1` [Compound 70, 1-(4-((3-hydroxypropyl)amino)-6-methylpyrimidin-2-yl)-3-phenylurea] registered an IC50 of 1 to 10 µM. As to `Cc1cc(NCCO)nc(NC(=O)Nc2ccccc2)n1` [Compound 71], the concentration for half-maximal inhibition (IC50) fell in the range of 1 to 10 µM.

Take `Cc1cc(NCCN)nc(NC(=O)Nc2ccccc2)n1` [Compound 72, 1-(4-((2-aminoethyl)amino)-6-methylpyrimidin-2-yl)-3-phenylurea]: the IC50 lay within 1 to 10 µM. For the compound `Cc1cc(NCCCCO)nc(NC(=O)Nc2ccccc2)n1` [Compound 73], the IC50 fell in the range of 1 to 10 µM.
